Laboratory results from patent US12496284B2, “Use of itaconate and its derivatives/analogues to induce hair growth” (The Johns Hopkins University, priority 2019, dated 2025).
Entries after “also recorded” stand apart in the source; their conditions may differ.

Assays:
[1] = Mouse skin penetration in Alopecia model; assay type: in vivo; details: dose 5% w/v
Source text: Referring now to FIG. 12, mouse skin penetration in an Alopecia model for IS-100-142 (compound 5) (left panel) and monomethyl itaconate (right panel) is shown.

[2] = test system: TLR3/IL6/STAT3 axis; experiment: Treatment of human keratinocytes (NHEKs) with itaconate prodrugs, poly(I:C) challenge, qRT-PCR; assay type: cell-based; details: NHEKs pre-treated 2 days, then poly(I:C) for 24 hours, mRNA by qRT-PCR, FIG. 4, FIG. 6
Protocol: Neonatal human epidermal keratinocytes (NHEKs) isolates from neonatal foreskin were seeded at a density of 100,000 cells per well and were maintained in KGM supplemented with growth factors (KGM-GOLD Bullet kit, #192060). Prodrugs were reconstituted in DMSO. NHEKs were pre-treated with either vehicle (0.1% DMSO) or prodrug. After 2 days, NHEKs were treated with […] poly(I:C) for 24 hours.
Total RNA was isolated and purified from cultured NHEKs using the RNeasy Mini Kit (Qiagen, Valencia, CA, #74106). After assessing RNA purity and concentrations using a NanoDrop 2000 UV-Vis spectrophotometer, RNA was converted to cDNA using a reverse-transcription kit and random hexamer primers (Applied Biosystems, #4368814). mRNA expression was determined by qRT-PCR using gene-specific, fluorophore-based TaqMan probes and universal master mix (Applied Biosystems, #4366072). The qRT-PCR reactions were multiplexed using target and reference gene (RPLPO) probes. Relative mRNA fold changes were then quantified using the […] method.
Next, whether itaconate derivatives, such as itaconate prodrugs, have this same capacity was tested. To screen for compounds, those that behaved in vitro with similar properties to itaconate were evaluated. First, the molecular effect of dimethyl itaconate (DI) to blunt dsRNA (PIC; Polyinosinic:polycytidylic acid) effect at increasing TLR3, IL-6, and STAT3 expression was tested.
Next, the ability of synthesized itaconate prodrugs to behave similarly in the in vitro assay was tested. […] Methods are as above, but substituting the […].

[3] = test system: C57BL6/J mice; experiment: Hair growth (telogen to anagen transition) after topical treatment of shaved mice; assay type: in vivo; details: for hair growth compared with JAK inhibitors: 3% each diluted in DMSO, topical, FIG. 9
Protocol: All adult wild-type (C57BL6/J) mice were approximate 8.5 weeks old and obtained from Jackson Labs (#00664). All animals were maintained in an AAALAC (Accreditation of Laboratory Animal Care International)—approved facility at Johns Hopkins University. All experimental procedures were approved by the Institutional Animal Care and Use Committee at Johns Hopkins under the protocol #MO17M298.
(§1) Adult C57BL6/J mice were treated during the refractory period of hair dormancy (telogen) to allow for hair growth (anagen) re-initiation. To determine the anagen re-entry, mice were grossly observed for skin thickening and darkening. Mice were shaved on their dorsal side and the left half the skin was topically treated with either vehicle (DMSO) or prodrug (20% IS-100-142 (compound 5)) with the right side untreated. The treatment regimen was once every other day for a total of two treatment cycles.
In one aspect, the presently disclosed subject matter is directed to compounds that might be able to enhance hair growth. To this end, the ability of dimethyl itaconate to induce the transition from the resting phase of the hair cycle, telogen, to the growing phase of the hair cycle, anagen, in wild type mice was tested.
Finally, the ability of compound 5 to also induce hair growth as observed for DI was tested. […] Here mice were treated as above, except the left side was treated with either compound 5 or DMSO and the right side was left untreated. The small amount of hair growth in the DMSO treated mouse was from the natural anagen cycle beginning.
as §1, with “All adult wild-type (C57BL6/J) mice were approximate 8.5 weeks old and obtained from Jackson Labs. Animals were fed standard mouse diet. […] Adult” for “Adult”, “right” for “left”, “dimethyl itaconate (20%) or with 1% compound 5, 2% compound 5 or 5% compound 5” for “prodrug (20% IS-100-142 (compound 5))”, “left” for “right”, “or three treatments with similar results.” for “treatment cycles.”

SMILES | intact prodrug levels, skin versus plasma ([1]; topical application in DMSO, FIG. 12 left panel) | monomethyl itaconate levels, skin versus plasma ([1]; topical application of IS-100-142 in DMSO, FIG. 12 right panel) | inhibition of dsRNA (poly(I:C)) effect at increasing TLR3, IL-6 and STAT3 expression (downstream gene targets TLR3, IL6, STAT3, WNT7B) [2] | inhibition of dsRNA (poly(I:C)) effect at increasing TLR3, IL-6 and STAT3 expression (downstream gene targets TLR3, IL6, STAT3, WNT7B) ([2]; listed as IS-100-142) | transition of hair follicle from telogen to anagen (hair growth) ([3]; 1%, 2% or 5% compound 5 topical on right half of skin, once every other day, two or three treatments, FIG. 8) | hair growth compared with JAK inhibitors [3] | hair growth ([3]; 20% compound 5 in DMSO, topical on left half of shaved dorsal skin, once every other day, two treatment cycles, FIG. 7) | inhibition of dsRNA (poly(I:C)) effect at increasing TLR3, IL-6 and STAT3 expression (downstream gene targets TLR3, IL6, STAT3, WNT7B) ([2]; listed as DI) | transition from telogen (resting phase) to anagen (growing phase) of the hair cycle ([3]; 20% dimethyl itaconate, wild type mice, FIG. 5)
C=C(CC(=O)OC)C(=O)OCOC(=O)OC(C)C [Compound 5] | higher in skin versus plasma | higher in skin versus plasma | potently inhibited the same dsRNA response as DI | inhibits JAK-STAT signaling most effectively | promote transition of hair follicle from telogen (quiescence phase) to anagen (growing phase); also recorded: induces hair growth | comparable levels as Ruxolitinib and Tofacitinib | induces hair growth |  | 
C[C@@H]1CCN(C(=O)CC#N)C[C@@H]1N(C)c1ncnc2[nH]ccc12 [Tofacitinib, reference compound] |  |  |  |  |  | comparable levels |  |  | 
C=C(CC(=O)OC)C(=O)OC [dimethyl itaconate, reference compound] |  |  | blunt dsRNA |  |  |  |  | potently inhibits those markers | potently induced this transition; also recorded: induces the transition
